{
  "source": "PubChem BioAssay AID328",
  "about": "(DTP/NCI, 2004)",
  "system": "BDF1 mice, P388 leukemia ip, median survival T/C",
  "assay": "NCI In Vivo Anticancer Drug Screen. Data for tumor model P388 Leukemia (intraperitoneal) in B6D2F1 (BDF1) mice",
  "settings": "endpoint: median survival time, higher = longer survival",
  "outline": "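Compound-treated tumour-bearing mice were compared with vehicle-treated controls. Survival was recorded, and the value is the treated-group measurement divided by the control-group measurement (T/C).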",
  "key": {"[1]": {"settings": "dose: 100.0 mg/kg/injection, schedule: Q01DX009 (ip), vehicle: saline"}, "[2]": {"settings": "dose: 12.5 mg/kg/injection, schedule: Q01DX009 (ip), vehicle: saline with Tween-80"}, "[3]": {"settings": "dose: 25.0 mg/kg/injection, schedule: Q01DX009 (ip), vehicle: saline with Tween-80"}, "[4]": {"settings": "dose: 100.0 mg/kg/injection, schedule: Q04DX003 (ip), vehicle: saline with Tween-80"}, "[5]": {"settings": "dose: 200.0 mg/kg/injection, schedule: Q04DX003 (ip), vehicle: saline with Tween-80"}, "[6]": {"settings": "dose: 400.0 mg/kg/injection, schedule: Q04DX003 (ip), vehicle: saline with Tween-80"}},
  "note": "Several values for one entry are separate records, joined by “and”; a condition that tells them apart may be missing. Equal values may be shown once. Inconclusive results and toxic doses are left out.",
  "data": [
    {"molecule": "NP(=O)(N1CC1)N1CC1", "values": [
      {"measurement": "T/C", "setting": "dose: 6.25 mg/kg/injection, schedule: Q04DX003 (ip), vehicle: saline", "result": "100 % of control"},
      {"measurement": "T/C", "setting": "dose: 25.0 mg/kg/injection, schedule: Q04DX003 (ip), vehicle: saline", "result": "230 % of control"}
    ]},
    {"molecule": "COC(=O)C(N)CSCSC", "note": "(configuration not stated)", "values": [
      {"measurement": "T/C", "setting": "dose: 100.0 mg/kg/injection, schedule: Q04DX003 (ip), vehicle: saline", "result": "90 % of control"},
      {"measurement": "T/C", "setting": "dose: 200.0 mg/kg/injection, schedule: Q04DX003 (ip), vehicle: saline", "result": "100 % of control"},
      {"measurement": "T/C", "setting": "dose: 400.0 mg/kg/injection, schedule: Q04DX003 (ip), vehicle: saline", "result": "90 % of control"}
    ]},
    {"molecule": "CCCCCCCCCCCC[n+]1ccc(C)cc1C", "values": [
      {"measurement": "T/C", "setting": "dose: 62.0 micrograms/kg/injection, schedule: Q01DX009 (ip), vehicle: saline", "result": "107 % of control"},
      {"measurement": "T/C", "setting": "dose: 125.0 micrograms/kg/injection, schedule: Q01DX009 (ip), vehicle: saline", "result": "102 % of control"},
      {"measurement": "T/C", "setting": "dose: 250.0 micrograms/kg/injection, schedule: Q01DX009 (ip), vehicle: saline", "result": "113 % of control"},
      {"measurement": "T/C", "setting": "dose: 500.0 micrograms/kg/injection, schedule: Q01DX009 (ip), vehicle: saline", "result": "116 % of control"}
    ]},
    {"molecule": "O=P1(NCCCl)OCCCN1CCCl", "note": "(configuration not stated)", "values": [
      {"measurement": "T/C", "setting": "dose: 0.8 mg/kg/injection, schedule: Q01DX010 (ip), vehicle: saline", "result": "105 % of control"},
      {"measurement": "T/C", "setting": "dose: 1.5 mg/kg/injection, schedule: Q01DX010 (ip), vehicle: saline", "result": "100 % of control"},
      {"measurement": "T/C", "setting": "dose: 3.0 mg/kg/injection, schedule: Q01DX010 (ip), vehicle: saline", "result": "110 % of control"},
      {"measurement": "T/C", "setting": "dose: 3.12 mg/kg/injection, schedule: Q01DX009 (ip), vehicle: saline", "result": "99 % of control"},
      {"measurement": "T/C", "setting": "dose: 6.0 mg/kg/injection, schedule: Q01DX010 (ip), vehicle: saline", "result": "110 % of control"},
      {"measurement": "T/C", "setting": "dose: 6.25 mg/kg/injection, schedule: Q01DX009 (ip), vehicle: saline", "result": "107 % of control and 115 % of control"},
      {"measurement": "T/C", "setting": "dose: 12.5 mg/kg/injection, schedule: Q01DX009 (ip), vehicle: saline", "result": "173 % of control"},
      {"measurement": "T/C", "setting": "dose: 12.5 mg/kg/injection, schedule: Q01DX010 (ip), vehicle: saline", "result": "177 % of control"},
      {"measurement": "T/C", "setting": "dose: 25.0 mg/kg/injection, schedule: Q01DX009 (ip), vehicle: saline", "result": "166 % of control and 196 % of control"},
      {"measurement": "T/C", "setting": "dose: 25.0 mg/kg/injection, schedule: Q01DX009 (ip), vehicle: water", "result": "156 % of control"},
      {"measurement": "T/C", "setting": "dose: 25.0 mg/kg/injection, schedule: Q01DX010 (ip), vehicle: saline", "result": "216 % of control"},
      {"measurement": "T/C", "setting": "dose: 50.0 mg/kg/injection, schedule: Q01DX009 (ip), vehicle: saline", "result": "121 % of control"},
      {"measurement": "T/C", "setting": "dose: 50.0 mg/kg/injection, schedule: Q01DX009 (ip), vehicle: water", "result": "241 % of control"},
      {"measurement": "T/C", "setting": "dose: 50.0 mg/kg/injection, schedule: Q01DX010 (ip), vehicle: saline", "result": "200 % of control"},
      {"measurement": "T/C", "setting": "[1]", "result": "105 % of control"},
      {"measurement": "T/C", "setting": "dose: 100.0 mg/kg/injection, schedule: Q01DX010 (ip), vehicle: saline", "result": "300 % of control"},
      {"measurement": "T/C", "setting": "dose: 200.0 mg/kg/injection, schedule: Q01DX009 (ip), vehicle: saline", "result": "87 % of control"},
      {"measurement": "T/C", "setting": "dose: 200.0 mg/kg/injection, schedule: Q01DX009 (ip), vehicle: water", "result": "98 % of control"},
      {"measurement": "T/C", "setting": "dose: 200.0 mg/kg/injection, schedule: Q01DX010 (ip), vehicle: saline", "result": "105 % of control"}
    ]},
    {"molecule": "CCOC1OCN(C)CC1(C)C", "note": "(configuration not stated)", "values": [
      {"measurement": "T/C", "setting": "[2]", "result": "115 % of control"},
      {"measurement": "T/C", "setting": "[3]", "result": "120 % of control"},
      {"measurement": "T/C", "setting": "dose: 66.0 mg/kg/injection, schedule: Q01DX009 (ip), vehicle: saline", "result": "115 % of control"},
      {"measurement": "T/C", "setting": "[1]", "result": "119 % of control"},
      {"measurement": "T/C", "setting": "dose: 150.0 mg/kg/injection, schedule: Q01DX009 (ip), vehicle: saline", "result": "154 % of control"}
    ]},
    {"molecule": "O=C(/C=C/c1ccc(Cl)cc1)c1ccc(Cl)cc1", "values": [
      {"measurement": "T/C", "setting": "dose: 100.0 mg/kg/injection, schedule: Q01DX009 (ip), vehicle: saline with Tween-80", "result": "100 % of control"},
      {"measurement": "T/C", "setting": "dose: 200.0 mg/kg/injection, schedule: Q01DX009 (ip), vehicle: saline with Tween-80", "result": "90 % of control"},
      {"measurement": "T/C", "setting": "dose: 400.0 mg/kg/injection, schedule: Q01DX009 (ip), vehicle: saline with Tween-80", "result": "90 % of control"}
    ]},
    {"molecule": "CC(=O)CC(C)=O.CC(=O)CC(C)=O.c1cc[c]([Sn][c]2ccccc2)cc1", "values": [
      {"measurement": "T/C", "setting": "dose: 100.0 mg/kg/injection, schedule: Q01DX001 (ip), vehicle: Klucel (hydroxypropylcellulose) (HPC)", "result": "160 % of control"},
      {"measurement": "T/C", "setting": "dose: 200.0 mg/kg/injection, schedule: Q01DX001 (ip), vehicle: Klucel (hydroxypropylcellulose) (HPC)", "result": "166 % of control"}
    ]},
    {"molecule": "Cc1ccc(S(=O)(=O)Nc2ccc([N+](=O)[O-])cc2[N+](=O)[O-])cc1", "values": [
      {"measurement": "T/C", "setting": "[3]", "result": "95 % of control"},
      {"measurement": "T/C", "setting": "dose: 50.0 mg/kg/injection, schedule: Q01DX009 (ip), vehicle: saline with Tween-80", "result": "92 % of control"}
    ]},
    {"molecule": "COc1ccc(CCNC(=O)CCN2C(=O)c3ccccc3C2=O)cc1OC", "values": [
      {"measurement": "T/C", "setting": "[4]", "result": "104 % of control"},
      {"measurement": "T/C", "setting": "[5]", "result": "90 % of control"},
      {"measurement": "T/C", "setting": "[6]", "result": "100 % of control"}
    ]},
    {"molecule": "NC(=S)N/N=C/c1ccc(OC(=O)Cc2ccccc2)cn1", "values": [
      {"measurement": "T/C", "setting": "[2]", "result": "150 % of control"}
    ]},
    {"molecule": "COC(=O)c1ccc2oc(=O)cc(C)c2c1O", "values": [
      {"measurement": "T/C", "setting": "[4]", "result": "104 % of control"},
      {"measurement": "T/C", "setting": "[5]", "result": "100 % of control"},
      {"measurement": "T/C", "setting": "[6]", "result": "95 % of control"}
    ]}
  ]
}
